Laboratory results reported in publication PMC10652874, “Investigation into the mechanism of action of the antimicrobial peptide epilancin 15X” (Frontiers in Microbiology, 2023).

Tested on: protein biosynthesis in S. carnosus TM300
Experiment: Macromolecular synthesis assay: 14C-L-amino acids incorporation into protein
Type: cell-based, Staphylococcus carnosus
Settings: S. carnosus TM300, 2× MIC, three independent experiments
Procedure: Radiolabel incorporation experiments were carried out similarly as previously described but using S. carnosus ([Wu et al., 2019]). The OD600 of parallel nonradioactive cultures was measured at each time point to normalize the measured radioactivity and minimize effects due to cell death and growth inhibition. The radiolabeled reagents and their corresponding positive and negative antibiotic controls were as follows. […] All experiments were conducted independently three times.
Figure S3. Thre e in de pen den t ex perime nts of incorporation of (A) 14C- acetic acid into fatty acids, (B) 14C- thymi din e into D NA, (C) 3H-uridi ne into RNA, (D) 14C- lab el ed ami no acids into protei n, and (E) 14C- label ed GlcNAc into cell w all in S. carnosus TM300 cells treated with vario u s antimicro bia l agents. T he p ercent i nco rpo ratio n at 0 min was measured after incubati ng the cel l cultur e with 0.8 μCi/mL radioactive precursors for 15 min. Then 0.5x, 1x, 2x, or 4x MIC epilanci n 15X and 2x MIC controls were added to the cell cultur e (t=0), and t he percent incorporation was measur ed ov er time. Positive controls a re gr een and negative controls are black (cells o nly) an d blu e (co mpo und w ith mo d e o f actio n unr elate d to th e a ssay i n que stio n). […]

Q: Which “protein biosynthesis (14C-L-amino acid incorporation)” value does the source give for Epilancin 15X here?
A: considerably stronger effect than that observed with the respective negative controls
